Source: article doi:10.1101/2024.09.10.612317v1 (bioRxiv, 2024)

Key:
[1] = Turbidity and optical microscopy of LLPS; format: physicochemical; conditions: 0.1 M phosphate buffer pH 7.4, 1M NaCl
[2] = system: BMDCs overlaid with BB7 hybridoma cells; experiment: Antigen presentation assay with Ag85B and BB7 hybridoma; format: cell-based, mouse; conditions: Ag85B ∼0.5 μM, BMDCs to BB7 cells 1:7
BMDCs = experiment: Cytokine, chemokine and growth factor production by BMDCs; format: cell-based, mouse; conditions: coacervates 10 μM, 24 h, multiplex assays; LPS positive control

Row | coacervates at 1M NaCl (optical micrographs) [1] | Substance | antigen presentation of Ag85B (IL-2) [2] | induction of cytokines, chemokines and growth factors in BMDCs (BMDCs)
1 | presence of coacervates | (GHGVY)4 [GV 20] | enhanced antigen presentation of Ag85B | immunologically inert
2 | presence of coacervates | (GHGLY)4 [GL 20] | enhanced antigen presentation of Ag85B | immunologically inert
